Several values for one entry are separate records, joined by “and”; a condition that tells them apart may be missing. Equal values may be shown once. ± gives the uncertainty stated by the source.
Legend:
[1] = xn = mol fraction of the nth substance listed

CCC(C)(C)C
Details | viscosity [mPa·s]
298 K, 101.33 kPa | 0.3406 ± 0.0056

CCCC(=O)OCC
Details | viscosity [mPa·s]
303.15 K, 101 kPa | 0.5776 ± 0.0054

CCCC(=O)OCC(COC(=O)CCC)OC(=O)CCC
101.33 kPa
Details | viscosity [mPa·s]
298 K | 8.68 ± 0.12
303 K | 7.38 ± 0.1
308 K | 6.32 ± 0.09
313 K | 5.49 ± 0.08

CCCCC(CC)COP(=O)(OCC(CC)CCCC)OCC(CC)CCCC (stereo not drawn)
Details | viscosity [mPa·s]
308.15 K, 101 kPa | 8.206 ± 0.057

CCCCCCCCCC(=O)OCC
Details | viscosity [mPa·s]
298.15 K, 100 kPa | 2.112 ± 0.026

CCCCN
viscosity
Details | 293.15 K | 298.15 K | 303.15 K | 308.15 K | 313.15 K | 318.15 K | 323.15 K
100 kPa | – | 0.468 ± 0.01 mPa·s | 0.458 ± 0.01 mPa·s | – | 0.398 ± 0.009 mPa·s | – | 0.353 ± 0.008 mPa·s
101 kPa | 0.55 ± 0.01 mPa·s and 0.523 ± 0.003 mPa·s | 0.48 ± 0.003 mPa·s and 0.474 ± 0.013 mPa·s | – | – | 0.401 ± 0.002 mPa·s and 0.3922 ± 0.0051 mPa·s and 0.3891 ± 0.0052 mPa·s | 0.3695 ± 0.0049 mPa·s | 0.3491 ± 0.0046 mPa·s
101.33 kPa | – | – | – | 0.412 ± 0.0038 mPa·s | 0.3891 ± 0.0052 mPa·s and 0.3887 ± 0.0036 mPa·s and 0.397 ± 0.004 mPa·s | 0.3676 ± 0.0035 mPa·s | 0.3486 ± 0.0033 mPa·s and 0.355 ± 0.004 mPa·s

CC[N+](=O)[O-]
viscosity
Details | 293.15 K | 298.15 K | 303.15 K | 308.15 K | 313.15 K | 318.15 K
101 kPa | – | – | 0.5737 ± 0.015 mPa·s | 0.5507 ± 0.015 mPa·s | – | 0.5009 ± 0.013 mPa·s
101.33 kPa | 0.68 ± 0.007 mPa·s and 0.679 ± 0.006 mPa·s and 0.679 ± 0.014 mPa·s | 0.638 ± 0.006 mPa·s | 0.605 ± 0.005 mPa·s and 0.605 ± 0.013 mPa·s | – | 0.544 ± 0.005 mPa·s and 0.544 ± 0.011 mPa·s | –

CCn1ccnc1
viscosity [mPa·s]
Details | 298.15 K | 308.15 K | 318.15 K
100 kPa | 1.93 ± 0.1 | 1.59 ± 0.08 | 1.34 ± 0.07
101 kPa | 1.933 ± 0.098 | 1.594 ± 0.081 | 1.343 ± 0.068

Cc1ccncc1
Details | viscosity [mPa·s]
298.15 K, 101.33 kPa | 0.86 ± 0.011

O=C(O)C(Cl)(Cl)Cl
Details | viscosity
323.15 K, 101 kPa | 4.824 ± 0.2 mPa·s (2×) and 5.323 ± 0.069 mPa·s and 4.797 ± 0.12 mPa·s

OC1CCCCCC1
100 kPa
Details | viscosity [mPa·s]
293.15 K | 68.77 ± 3.1
298.15 K | 53.6 ± 3
303.15 K | 43.34 ± 3.1
308.15 K | 35.61 ± 3.1
313.15 K | 30.84 ± 3
318.15 K | 26.6 ± 3

[Cl-].[Cl-].[Cl-].[Sb+3]
Details | viscosity [mPa·s]
323.15 K, 101 kPa | 3.926 ± 0.16

[I-].[K+] + [2H]O[2H]
viscosity [mPa·s], [1], 101 kPa
Details | x1 = 0.011 | x1 = 0.021 | x1 = 0.036 | x1 = 0.053 | x1 = 0.076 | x1 = 0.121
298.15 K | 1.036 ± 0.009 | 0.97 ± 0.008 | 0.942 ± 0.008 | 0.936 ± 0.008 | 0.972 ± 0.008 | 1.098 ± 0.009
308.15 K | 0.829 ± 0.007 | 0.794 ± 0.007 | 0.776 ± 0.007 | 0.783 ± 0.007 | 0.823 ± 0.007 | 0.942 ± 0.008
318.15 K | 0.692 ± 0.006 | 0.667 ± 0.006 | 0.662 ± 0.006 | 0.68 ± 0.006 | 0.715 ± 0.006 | 0.827 ± 0.007

CCCC(=O)OCC + c1ccccc1
[1]
Details | viscosity [mPa·s]
303.15 K, 101.33 kPa, x2 = 0.0662 | 0.591 ± 0.005
303.15 K, 101.33 kPa, x2 = 0.2048 | 0.581 ± 0.005
303.15 K, 101.33 kPa, x2 = 0.3293 | 0.571 ± 0.005
303.15 K, 101.33 kPa, x2 = 0.4394 | 0.563 ± 0.005
303.15 K, 101.33 kPa, x2 = 0.5452 | 0.559 ± 0.005
303.15 K, 101.33 kPa, x2 = 0.5996 | 0.555 ± 0.005
303.15 K, 101.33 kPa, x2 = 0.6452 | 0.554 ± 0.005
303.15 K, 101.33 kPa, x2 = 0.7372 | 0.551 ± 0.005
303.15 K, 101.33 kPa, x2 = 0.8161 | 0.551 ± 0.005
303.15 K, 101.33 kPa, x2 = 0.8938 | 0.554 ± 0.005
303.15 K, 101.33 kPa, x2 = 0.9658 | 0.555 ± 0.005
308.15 K, 101.3 kPa, x1 = 0.0473 | 0.534 ± 0.005
308.15 K, 101.3 kPa, x1 = 0.099 | 0.531 ± 0.005
308.15 K, 101.3 kPa, x1 = 0.1937 | 0.528 ± 0.005
308.15 K, 101.3 kPa, x1 = 0.2987 | 0.526 ± 0.005
308.15 K, 101.3 kPa, x1 = 0.4059 | 0.527 ± 0.005
308.15 K, 101.3 kPa, x1 = 0.4998 | 0.529 ± 0.005
308.15 K, 101.3 kPa, x1 = 0.5753 | 0.533 ± 0.005
308.15 K, 101.3 kPa, x1 = 0.7021 | 0.541 ± 0.005
308.15 K, 101.3 kPa, x1 = 0.7978 | 0.55 ± 0.005
308.15 K, 101.3 kPa, x1 = 0.903 | 0.562 ± 0.005
308.15 K, 101.3 kPa, x1 = 0.9514 | 0.569 ± 0.005
313.15 K, 101.33 kPa, x2 = 0.2126 | 0.539 ± 0.005
313.15 K, 101.33 kPa, x2 = 0.4055 | 0.521 ± 0.004
313.15 K, 101.33 kPa, x2 = 0.507 | 0.513 ± 0.004
313.15 K, 101.33 kPa, x2 = 0.6031 | 0.506 ± 0.004
313.15 K, 101.33 kPa, x2 = 0.8066 | 0.496 ± 0.004
318.15 K, 101.3 kPa, x1 = 0.0473 | 0.47 ± 0.004
318.15 K, 101.3 kPa, x1 = 0.099 | 0.471 ± 0.004
318.15 K, 101.3 kPa, x1 = 0.1937 | 0.472 ± 0.004
318.15 K, 101.3 kPa, x1 = 0.2987 | 0.476 ± 0.004
318.15 K, 101.3 kPa, x1 = 0.4059 | 0.481 ± 0.004
318.15 K, 101.3 kPa, x1 = 0.4998 | 0.486 ± 0.004
318.15 K, 101.3 kPa, x1 = 0.5753 | 0.491 ± 0.004
318.15 K, 101.3 kPa, x1 = 0.7021 | 0.502 ± 0.005
318.15 K, 101.3 kPa, x1 = 0.7978 | 0.512 ± 0.005
318.15 K, 101.3 kPa, x1 = 0.903 | 0.525 ± 0.005
318.15 K, 101.3 kPa, x1 = 0.9514 | 0.531 ± 0.005

CCCCN + c1ccccc1
viscosity [mPa·s], [1], 101 kPa
Details | 303.15 K | 313.15 K
x1 = 0.009356 | 0.5633 ± 0.0043 | 0.4919 ± 0.0039
x1 = 0.01948 | 0.5628 ± 0.0043 | 0.4907 ± 0.0039
x1 = 0.02841 | 0.5622 ± 0.0043 | 0.4905 ± 0.0039
x1 = 0.03798 | 0.562 ± 0.0043 | 0.4893 ± 0.0039
x1 = 0.048 | 0.5618 ± 0.0043 | 0.4884 ± 0.0039
x1 = 0.0558 | 0.536 ± 0.005 | –
x1 = 0.05882 | 0.5617 ± 0.0043 | 0.4876 ± 0.0039
x1 = 0.0669 | 0.5608 ± 0.0043 | 0.4869 ± 0.0039
x1 = 0.07642 | 0.5598 ± 0.0043 | 0.4861 ± 0.0039
x1 = 0.08586 | 0.5588 ± 0.0043 | 0.4852 ± 0.0039
x1 = 0.1165 | 0.516 ± 0.005 | –
x1 = 0.2036 | 0.494 ± 0.005 | –
x1 = 0.2875 | 0.479 ± 0.005 | –
x1 = 0.382 | 0.465 ± 0.005 | –
x1 = 0.5164 | 0.453 ± 0.005 | –
x1 = 0.5676 | 0.451 ± 0.005 | –
x1 = 0.6631 | 0.448 ± 0.005 | –
x1 = 0.7656 | 0.447 ± 0.005 | –
x1 = 0.8602 | 0.446 ± 0.005 | –
x1 = 0.9278 | 0.444 ± 0.005 | –
x2 = 0.0974 | 0.4454 ± 0.0051 | –
x2 = 0.1974 | 0.4466 ± 0.0051 | –
x2 = 0.5007 | 0.4542 ± 0.0052 | –
x2 = 0.6051 | 0.4738 ± 0.0054 | –
x2 = 0.7995 | 0.5056 ± 0.0057 | –
x2 = 0.9004 | 0.5322 ± 0.006 | –

CC[N+](=O)[O-] + c1ccccc1
[1], 293.15 K, 101.33 kPa
Details | viscosity [mPa·s]
x1 = 0.0901 | 0.628 ± 0.006
x1 = 0.1956 | 0.611 ± 0.006
x1 = 0.2856 | 0.602 ± 0.006
x1 = 0.3897 | 0.595 ± 0.006
x1 = 0.4893 | 0.594 ± 0.006
x1 = 0.5827 | 0.597 ± 0.006
x1 = 0.6952 | 0.608 ± 0.006
x1 = 0.7869 | 0.622 ± 0.006
x1 = 0.879 | 0.644 ± 0.007
